“And” between values parts separate entries of the source, which are not always exact repeats. Identical values can stand only once. Toxic doses and inconclusive results are not listed. Bridge positions count the residues as written; N and C are the ends. Square brackets hold non-standard residues; d marks the D form. Peptide text beside a SMILES is read from it. * marks the point of attachment. Cya = N[CH](CS(=O)(=O)O)C(=O)O; X6 = CC(C)CCCCCCCC(O)CC(=O)*; GABA = NCCCC(=O)O
Tested on: P388 leukemia ip, CD2F1 mice, survival T/C
Experiment: NCI In Vivo Anticancer Drug Screen. Data for tumor model P388 Leukemia (intraperitoneal) in CD2F1 (CDF1) mice
Details: endpoint: median survival time, higher = longer survival
Procedure, shortened: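 Mice carrying the transplanted tumor received test compound or vehicle. Survival was recorded in each group, and the value is the treated-group measurement divided by that of the vehicle-treated control group.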

[1] = dose: 50.0 mg/kg/injection, schedule: Q01DX005 (ip), vehicle: Klucel (hydroxypropylcellulose) (HPC)
[2] = dose: 100.0 mg/kg/injection, schedule: Q01DX005 (ip), vehicle: Klucel (hydroxypropylcellulose) (HPC)
[3] = dose: 200.0 mg/kg/injection, schedule: Q01DX005 (ip), vehicle: Klucel (hydroxypropylcellulose) (HPC)
[4] = dose: 50.0 mg/kg/injection, schedule: Q01DX009 (ip), vehicle: saline with Tween-80
[5] = dose: 100.0 mg/kg/injection, schedule: Q01DX009 (ip), vehicle: saline with Tween-80
[6] = dose: 50.0 mg/kg/injection, schedule: Q01DX009 (ip), vehicle: saline
[7] = dose: 100.0 mg/kg/injection, schedule: Q01DX009 (ip), vehicle: saline
[8] = dose: 200.0 mg/kg/injection, schedule: Q01DX009 (ip), vehicle: saline with Tween-80

CC[C@@]1(O)C[C@H](OC2CC(N(C)C)C(OC3CC(O)C(O[C@@H]4O[C@@H](C)C(=O)C=C4N)C(C)O3)C(C)O2)c2c(cc3c(c2O)C(=O)c2c(O)ccc(O)c2C3=O)[C@H]1C(=O)OC (some centres not stated)
T/C (dose: 0.19 mg/kg/injection, schedule: Q01DX009 (ip), vehicle: saline): 150 % of control
T/C (dose: 0.38 mg/kg/injection, schedule: Q01DX009 (ip), vehicle: saline with Tween-80): 161 % of control
T/C (dose: 0.75 mg/kg/injection, schedule: Q01DX009 (ip), vehicle: saline with Tween-80): 175 % of control
T/C (dose: 0.75 mg/kg/injection, schedule: Q01DX009 (ip), vehicle: saline): 163 % of control
T/C (dose: 1.5 mg/kg/injection, schedule: Q01DX009 (ip), vehicle: saline with Tween-80): 89 % of control
T/C (dose: 1.5 mg/kg/injection, schedule: Q01DX009 (ip), vehicle: saline): 182 % of control
T/C (dose: 3.0 mg/kg/injection, schedule: Q01DX009 (ip), vehicle: saline): 94 % of control
T/C (dose: 1.0 micrograms/kg/injection, schedule: Q01DX005 (ip), vehicle: Klucel (hydroxypropylcellulose) (HPC)): 102 % of control
T/C (dose: 2.0 micrograms/kg/injection, schedule: Q01DX005 (ip), vehicle: Klucel (hydroxypropylcellulose) (HPC)): 106 % of control
T/C (dose: 4.0 micrograms/kg/injection, schedule: Q01DX005 (ip), vehicle: Klucel (hydroxypropylcellulose) (HPC)): 102 % of control
T/C (dose: 8.0 micrograms/kg/injection, schedule: Q01DX005 (ip), vehicle: Klucel (hydroxypropylcellulose) (HPC)): 102 % of control

O=C(c1ccc(-c2ccccc2)cc1)C1CC1c1ccccc1 (configuration not stated)
T/C (dose: 25.0 mg/kg/injection, schedule: Q01DX001 (ip), vehicle: saline sonified): 109 % of control
T/C (dose: 50.0 mg/kg/injection, schedule: Q01DX001 (ip), vehicle: saline sonified): 90 % of control
T/C (dose: 100.0 mg/kg/injection, schedule: Q01DX001 (ip), vehicle: saline sonified): 90 % of control

CC(C)CCCCCCCC(O)CC(=O)NC(CS(=O)(=O)O)C(=O)NC(CC(C)C)C(=O)NCCCC(=O)NC(Cc1cnc[nH]1)C(=O)NC(C)C(=O)NC1C(=O)NC(C(C)O)C(=O)NC(Cc2cnc[nH]2)C(=O)NC(C)C(=O)NC(C(C)O)C(=O)OC1C (configuration not stated) (X6-[Cya]L[GABA]HATTHAT; ester 6-C; configuration not given here)
T/C (dose: 0.38 mg/kg/injection, schedule: Q01DX005 (ip), vehicle: other): 95 % of control
T/C (dose: 0.75 mg/kg/injection, schedule: Q01DX005 (ip), vehicle: other): 102 % of control
T/C (dose: 1.5 mg/kg/injection, schedule: Q01DX005 (ip), vehicle: other): 100 % of control
T/C (dose: 3.0 mg/kg/injection, schedule: Q01DX005 (ip), vehicle: other): 100 % of control
T/C (dose: 6.0 mg/kg/injection, schedule: Q01DX005 (ip), vehicle: other): 99 % of control

C/C=C/C[P+](Cc1cccc(C)c1)(c1ccccc1)c1ccccc1
T/C (dose: 0.78 mg/kg/injection, schedule: Q01DX009 (ip), vehicle: saline): 101 % of control
T/C (dose: 1.56 mg/kg/injection, schedule: Q01DX009 (ip), vehicle: saline): 95 % of control
T/C (dose: 3.13 mg/kg/injection, schedule: Q01DX009 (ip), vehicle: saline): 111 % of control

Nc1nc(=O)n(C2CCCCO2)cc1I (configuration not stated)
T/C [1]: 105 % of control
T/C [2]: 102 % of control
T/C [3]: 111 % of control

O=Cc1ccccc1/C=C/C(=O)/C=C/c1ccccc1C=O
T/C (dose: 12.5 mg/kg/injection, schedule: Q01DX005 (ip), vehicle: Klucel (hydroxypropylcellulose) (HPC)): 105 % of control
T/C (dose: 25.0 mg/kg/injection, schedule: Q01DX005 (ip), vehicle: Klucel (hydroxypropylcellulose) (HPC)): 105 % of control
T/C [1]: 107 % of control and 110 % of control

CC(C)NCC1CCc2cc(CO)c([N+](=O)[O-])cc2N1 (configuration not stated)
T/C [1]: 105 % of control
T/C [2]: 107 % of control
T/C [3]: 106 % of control

Cc1cc(C)cc(NCCC#N)c1
T/C (dose: 100.0 mg/kg/injection, schedule: Q04DX003 (ip), vehicle: other): 109 % of control
T/C (dose: 200.0 mg/kg/injection, schedule: Q04DX003 (ip), vehicle: other): 109 % of control

Cc1cccc(N2C(=O)C=C(NCc3nc4ccccc4[nH]3)C2c2ccccc2)c1 (configuration not stated)
T/C [1]: 104 % of control
T/C [2]: 100 % of control
T/C [3]: 100 % of control

[Cl][Pt+2][Cl].[NH-]C(c1ccccc1)C([NH-])c1ccccc1 (configuration not stated)
T/C (dose: 1.56 mg/kg/injection, schedule: Q04DX002 (ip), vehicle: saline with Tween-80): 112 % of control
T/C (dose: 3.12 mg/kg/injection, schedule: Q04DX002 (ip), vehicle: saline with Tween-80): 103 % of control
T/C (dose: 3.13 mg/kg/injection, schedule: Q04DX002 (ip), vehicle: saline with Tween-80): 111 % of control
T/C (dose: 6.25 mg/kg/injection, schedule: Q04DX002 (ip), vehicle: saline with Tween-80): 117 % of control [middle of 4 runs]

Cc1oc2ccccc2c(=O)c1Cn1nnc2ccccc21
T/C (dose: 60.0 mg/kg/injection, schedule: Q01DX005 (ip), vehicle: saline with Tween-80): 103 % of control
T/C (dose: 120.0 mg/kg/injection, schedule: Q01DX005 (ip), vehicle: saline with Tween-80): 103 % of control
T/C (dose: 240.0 mg/kg/injection, schedule: Q01DX005 (ip), vehicle: saline with Tween-80): 94 % of control

CC(=O)N1CCN(c2ccc(OCC3COC(Cn4ccnc4)(c4ccc(Cl)cc4Cl)O3)cc2)CC1 (configuration not stated)
T/C [4]: 88 % of control
T/C [5]: 87 % of control

CCC(=O)Oc1ccc[nH]c1=O
T/C (dose: 25.0 mg/kg/injection, schedule: Q01DX009 (ip), vehicle: saline with Tween-80): 101 % of control
T/C (dose: 25.0 mg/kg/injection, schedule: Q01DX009 (ip), vehicle: saline): 105 % of control and 92 % of control
T/C [4]: 100 % of control
T/C [6]: 100 % of control and 110 % of control
T/C [5]: 100 % of control
T/C [7]: 103 % of control and 94 % of control
T/C [8]: 112 % of control and 121 % of control
T/C (dose: 300.0 mg/kg/injection, schedule: Q01DX009 (ip), vehicle: saline): 115 % of control and 116 % of control
T/C (dose: 400.0 mg/kg/injection, schedule: Q01DX009 (ip), vehicle: Klucel (hydroxypropylcellulose) (HPC)): 123 % of control
T/C (dose: 400.0 mg/kg/injection, schedule: Q01DX009 (ip), vehicle: saline with Tween-80): 122 % of control
T/C (dose: 500.0 mg/kg/injection, schedule: Q01DX009 (ip), vehicle: Klucel (hydroxypropylcellulose) (HPC)): 154 % of control
T/C (dose: 600.0 mg/kg/injection, schedule: Q01DX009 (ip), vehicle: saline with Tween-80): 122 % of control
T/C (dose: 600.0 mg/kg/injection, schedule: Q01DX009 (ip), vehicle: saline): 124 % of control

CC1N=C(SCC(=O)c2ccc(Cl)cc2)N2C(C)N=C(SCC(=O)c3ccc(Cl)cc3)N12 (configuration not stated)
T/C [6]: 98 % of control
T/C [7]: 90 % of control
T/C (dose: 200.0 mg/kg/injection, schedule: Q01DX009 (ip), vehicle: saline): 90 % of control

CCOC(=O)N(C)CCc1cc(OC)c(OC)cc1/C=C\c1ccc(OC)c(OC)c1
T/C (dose: 12.5 mg/kg/injection, schedule: Q01DX001 (ip), vehicle: saline + alcohol): 100 % of control
T/C (dose: 25.0 mg/kg/injection, schedule: Q01DX001 (ip), vehicle: saline + alcohol): 98 % of control
T/C (dose: 50.0 mg/kg/injection, schedule: Q01DX001 (ip), vehicle: saline + alcohol): 98 % of control

N=C(N)c1ccc(/C=C/c2cc3cc(C(=N)N)ccc3[nH]2)cc1
T/C (dose: 6.25 mg/kg/injection, schedule: Q04DX003 (ip), vehicle: saline): 101 % of control and 108 % of control
T/C (dose: 12.5 mg/kg/injection, schedule: Q04DX003 (ip), vehicle: saline): 99 % of control and 102 % of control
T/C (dose: 25.0 mg/kg/injection, schedule: Q04DX003 (ip), vehicle: saline): 99 % of control and 101 % of control

CC(C)(C)c1ccc(C(c2ccc(C(C)(C)C)cc2)C(Cl)(Cl)Cl)cc1
T/C (dose: 100.0 mg/kg/injection, schedule: Q04DX003 (ip), vehicle: saline with Tween-80): 104 % of control
T/C (dose: 200.0 mg/kg/injection, schedule: Q04DX003 (ip), vehicle: saline with Tween-80): 100 % of control
T/C (dose: 400.0 mg/kg/injection, schedule: Q04DX003 (ip), vehicle: saline with Tween-80): 100 % of control

Cc1cc(O)c(C)c(C(=O)O)c1
T/C [4]: 99 % of control
T/C [5]: 99 % of control
T/C [8]: 92 % of control

CSCc1cc([N+](=O)[O-])ccc1N
T/C (dose: 100.0 mg/kg/injection, schedule: Q01DX001 (ip), vehicle: saline with Tween-80): 91 % of control
T/C (dose: 200.0 mg/kg/injection, schedule: Q01DX001 (ip), vehicle: saline with Tween-80): 98 % of control

CCn1c(C)c(COC(=O)NC)c(COC(=O)NC)c1-c1ccc(Cl)c(Cl)c1
T/C (dose: 6.25 mg/kg/injection, schedule: Q01DX009 (ip), vehicle: distilled water + Tween-80): 150 % of control and 152 % of control
T/C (dose: 12.5 mg/kg/injection, schedule: Q01DX009 (ip), vehicle: distilled water + Tween-80): 153 % of control
